Several values for one entry are separate records, joined by “and”; a condition that tells them apart may be missing. Equal entries are not always repeated.

Data set [1] concerns conscious fully-instrumented dogs with normal cardiac function. As to the kind of experiment: Cardiac reserve under acute β-AR (dobutamine) challenges in conscious instrumented dogs. The data set is classed as in vivo, dog. How it is done: In addition, the effects of MAVA (at 1.5 mg/kg PO, via gavage) on cardiac reserve were evaluated via acute β-AR challenges (dobutamime: 2, 5, and 10 ug/kg/min IV) in conscious fully-instrumented (LVPV group) dogs with normal cardiac function (n=8). These challenges were performed before/after dosing (+3-hour) in control- and MAVA-treated animals both under normal cardiac physiological conditions (n=4) and under (mild) concomitant cardio-depression induced via either selective β-AR blockade (+BB, metoprolol 0.5±0.1 mg/kg PO tid; n=4) or L-type Ca2+-channel blockade (+CCB, verapamil at 5±1 mg/kg PO tid; n=4); pharmacological blockades were established for 7 days prior to the MAVA treatment. Both peak and dose-responses were evaluated at steady state.
Throughout these experiments, analog signals were digitally acquired (1000 Hz) and recorded continuously with a data acquisition/analysis system (IOX; EMKA Technologies). Heart rate (HR), end-systolic (ESP) and end-diastolic pressures (EDP), as well as the peak rates of pressure rise/decline (dP/dtmax and dP/dtmin), the contractility index (CI: dP/dt/P at dP/dtmax), and the time-constant of myocardial relaxation (tau1/2, time for 50% decay from dP/dtmin) were derived from the LV pressure signal. Meanwhile, the end-systolic (ESV) and end-diastolic volumes (EDV) were measured from the LV volume signal derived from the implanted myocardial crystals. LV volumes were derived assuming a Teichholz model, and stroke volume (SV=EDV−ESV), ejection fraction (EF=SV/EDV), as well as cardiac output (CO=SV·HR) were calculated; in a subset of animals, SV and CO values were verified from data derived from the implanted aortic flow […]. […] The slopes of the preload-recruitable stroke work (PRSW; stroke work vs. EDV) and the end-systolic pressure-volume relationships (ESPVR; end-systolic elastance, Ees) were derived by software using linear models (IOX; EMKA Technologies), and were used as load-independent inotropic indices. Ventricular load was estimated by the effective arterial elastance (Ea=ESP/SV). […]

In data set [2] the test system is adults with symptomatic oHCM. Put plainly: PIONEER-OLE Phase 2 open-label extension study of mavacamten. Type of data set: in vivo. As to the method: All subjects were started on a dose of 5 mg QD.
To maximize safety, the starting dose will be 5 mg for all subjects. Subjects will return at Week 4 (±4 days) for a plasma PK sample to measure drug levels and to undergo echocardiography to determine LVOT gradient (at rest, after a Valsalva maneuver, and after exercise) and left ventricular ejection fraction (LVEF).
After Week 6, additional study visits will occur at Week 8 (±7 days), Week 12 (±7 days), and every 12 weeks (±7 days) thereafter. Subjects also will be contacted by phone in between clinic visits, at Week 18 and every 12 weeks thereafter. An end of study (EOS) visit will occur 12 weeks (±7 days) after the last administration of study drug. Visits (including the Screening visit which serves as the baseline) will entail recording vital signs, targeted physical examination, ECGs, safety laboratory tests, N-terminal pro b-type natriuretic peptide (NT-proBNP), adverse events (AEs), New York Heart Association (NYHA) functional class, Kansas City Cardiomyopathy Questionnaire (KCCQ) score, and concomitant medications. At Weeks 4, 8, 24, 36, 48, 60, 72, 96, 120, 144, 156/early termination (ET), and 168/EOS, a predose blood sample for assessment of drug concentration will be obtained. A standard TTE (including but not limited to assessment of LVOT gradient at rest and after Valsalva) will be performed at baseline, at Weeks 4, 8, 12, 24, 36, 48, 72, 96, 120, 144, 156/ET, and 168/EOS. In addition, a stress echocardiogram (with assessment of LVOT gradient post-exercise) will also be performed at baseline, Weeks 4, 48, 72, 156/ET, and 168/EOS.
The study endpoints include safety, tolerability, and select measures of efficacy using individualized dosing. Key measurements include LVOT gradient, LVEF, NT-proBNP.
• 1. Frequency and severity of treatment-emergent AEs and SAEs, • 2. Frequency of cardiovascular (CV) death, • 3. Frequency of sudden death, • 4. Frequency of CV hospitalization, • 5. Frequency of heart failure requiring the initiation of oral loop diuretics or the administration of intravenous loop diuretics, • 6. Frequency of myocardial infarction, • 7. Frequency of ventricular arrhythmias (ventricular tachycardia, ventricular fibrillation, ventricular flutter, torsade de pointe), • 8. Frequency of syncope, • 9. Frequency of seizures, • 10. Frequency of stroke, • 11. Frequency of LVEF≤45 as measured by echocardiography, • 12. QT and QTcF intervals over time. Efficacy and Pharmacodynamics Include: • 1. Post-exercise, post-Valsalva, and resting LVOT gradient over time, • 2. NYHA functional class over time, • 3. KCCQ scores over time, • 4. NT-proBNP over time, • 5. Frequency of septal reduction therapy.

Regarding `CC(C)n1c(=O)cc(N[C@@H](C)c2ccccc2)[nH]c1=O` [mavacamten, (S)-3-Isopropyl-6-((1-phenylethyl)amino)pyrimidine-2, 4(1H,3H)-dione], the “β-AR induced acceleration of tau” value in data set [1] (at any given dP/dtmax gain) is given as “enhanced”. Further, in data set [1] (dobutamine challenge, MAVA 1.5 mg/kg PO), the “β-AR elevations in dP/dtmax and CI” value was “blunted”. Besides, in data set [2] (48-week period), the “cardiac-related adverse events attributed to study drug” value is on record as “no cardiac-related adverse events (AEs) attributed to study drug”. In addition, the “E/e′ lateral, mean” value in data set [2] (Change from Baseline to Week 48) was −3.4; in data set [2] (Week 12), 9.8; in data set [2] (Week 24), 10.2; in data set [2] (Week 36) it was 8.5; in data set [2] (Week 48), 9.1. Further, the “IVS (interventricular septal thickness), mean” value worked out at 16.0 mm in data set [2] (Week 12); 15.9 ± 2.7 mm in data set [2] (Week 12, listed as Mavacamten); 15.8 mm in data set [2] (Week 24); 15.8 ± 2.7 mm in data set [2] (Week 24, listed as Mavacamten); 15.4 mm in data set [2] (Week 36); 15.4 ± 2.7 mm in data set [2] (Week 36, listed as Mavacamten). The “IVS (interventricular septal thickness), mean” value was 15 mm and 15.3 mm in data set [2] (Week 48); 15.5 ± 2.0 mm in data set [2] (Week 48, listed as Mavacamten). Further, the “IVS (interventricular septal thickness), mean change from baseline” value in data set [2] (Week 48) was −1.5 mm; in data set [2] (Week 48, listed as Mavacamten) it was −1.2 mm and −1.2 ± 2.3 mm. In addition, the “LVEF, mean change from baseline” value in data set [2] (Week 48) is listed as −1.8%. The “NT-proBNP, median” value in data set [2] (Week 48) is reported as 136.5 pg/mL. Further, the “patients who achieved a post-exercise LVOT gradient <30 mm Hg” value in data set [2] (Week 48) is “Five”. Further, the “median NT-proBNP, change from baseline” value in data set [2] (Week 60) is -481 pg/mL. For the same molecule, the LVEF maintained result in data set [2] (all patients at all timepoints) was “above 50%”. Besides, the “AEs considered potentially related to study drug” value in data set [2] (in 3 subjects, 7 mild, 1 moderate) is given as 8.

Source of the values: US12616697B2, “Methods of treatment with myosin modulator” (MyoKardia, Inc., priority 2020, dated 2026).
